Each molecule was assayed on bladder smooth muscle (assay: Contraction studies on isolated rat bladder strips with electrical field stimulation). Conditions: isolated bladder tissue.
Assay type: cell-based, Sprague-Dawley rat
Protocol: Bladder strips from (male/female) Sprague-Dawley (Charles River) rat bladders were mounted in 10 ml tissue baths maintained at 37 C, containing 10 ml of a saline solution consisting of: NaCl (118.5 mM), KCl (4.8 mM), NaHCO3 (25 mM), KH2PO4 (1.2 mM), MgSO4 (1.2 mM), CaCl2 (2.5 mM), and glucose (11.0 mM). The bladder strips were aerated with a mixture of 95% O2 and 5% CO2. The tissues were initially equilibrated for one h with 1 g. resting weight. The control response to 67 mM KCl was then determined. Electrical field stimulation (EFS) was provided through platinum electrodes of 1.14 cm^2 surface area located one cm apart on either side of the tissue. Stimulation to the platinum electrodes was provided by a GRASS Medical Instruments (Quincy, Mass.) S88 Square Pulse Stimulator set to deliver 10 V pulses with a 0.5 ms pulse duration in a pulse train of 10 seconds at either 1, 2, 4, or 8 Hz.

Row | Structure (SMILES) | effect on bladder smooth muscle stimulated by low frequency electric fields (relaxation)
1 | CCCCCC(O)C(O)CC=CCC=CCC=CCCCC(=O)O (stereo not shown) [14,15-DHET, 14,15-dihydroxyeicosatrienoic acid] | no effects
2 | CCCCCC1OC1CC=CCC=CCC=CCCCC(=O)O (stereo not shown) [14,15-EET, 14,15-epoxyeicosatrienoic acid] | relaxes bladder smooth muscle
3 | CCCCC/C=C\CC1OC1C/C=C\C/C=C\CCCC(=O)O (stereo not shown) [11,12-EET, 11,12-epoxyeicosatrienoic acid] | no effects
4 | CCCCC/C=C\C/C=C\CC1OC1C/C=C\CCCC(=O)O (stereo not shown) [8,9-EET, 8,9-epoxyeicosatrienoic acid] | no effects

Reference: US20090082402A1, “Methods of treating genitourinary disorders using inhibitors of soluble epoxide hydrolase” (Roche Palo Alto LLC, priority 2006, published 2009)
